Where two headings read alike, the source gives them in different places.
How the values were obtained:
[1] = target: T1, CDK7/Cyclin H/MNAT1 (Homo sapiens, UniProt P50613); assay: Enzymatic assay for CDK7 (FRET based LANCE Ultra kinase assay); assay type: biochemical
T1 construct: purchased Invitrogen PR6749B
Method: (§1) Enzymatic Binding Assay Protocol for CDK1, CDK2, CDK5 and CDK7
Inhibition activity of the respective compound on CDK kinase under Km value of ATP was tested in FRET based The LANCE® Ultra kinase assay (Perkin Elmer), which uses a ULight™-labeled peptide substrate and an appropriate Europium-labeled anti-phospho-antibody. […] After 1 min centrifugation at 1000 rpm, Purified CDKs/Cyclin complex were added following concentrations respectively. […] Data was analyzed using XL Fit software.

[2] = target: T2, CDK2/Cyclin A (Homo sapiens, UniProt P24941); assay: Enzymatic assay for CDK2 (FRET based LANCE Ultra kinase assay); assay type: biochemical
T2 construct: purchased Invitrogen PV6290
Method: as §1
(§2) Inhibition activity of the respective compound on CDK kinase under Km value of ATP was tested in FRET based The LANCE® Ultra kinase assay (Perkin Elmer), which uses a ULight™-labeled peptide substrate and an appropriate Europium-labeled anti-phospho-antibody. Test compounds were made with DMSO solutions, and then 4-fold serial dilutions for 8 doses were prepared using automated liquid handler (POD810, LABCYTE) and 80 nL/well of diluted compound solutions were added into the 384-well plates (Greiner, Cat #784075). And then 68 nM of ULight-MBP peptide (Perkin Elmer, Cat #TRF0109-M) and 5 ul/well of ATP (Sigma, Cat #A7699) were added to the plate. After 1 min centrifugation at 1000 rpm, Purified CDKs/Cyclin complex were added following concentrations respectively. 24 uM for CDK1/Cyclin B (Invitrogen, Cat #PR4768C), 22 uM for CDK2/Cyclin A (Invitrogen, Cat #PV6290), 10 uM for CDK5/p25 (Invitrogen, Cat #PR8543B) and […] for CDK7/Cyclin H/MNAT1 (Invitrogen, Cat #PR6749B) were added to the each corresponding plate for CDK1, CDK2, CDK5 and CDK7. Incubate at 23° C. for 60 min and then Eu-labeled anti-phospho-Myelin Basic Protein (PE, Cat #TRF0201-M) and EDTA (Invitrogen, Cat #15575038) mixture in Lance Detection Buffer (Perkin Elmer, Cat #CR97100) was added in each well. After additional incubation at 23° C. for 60 min, test articles were measured the fluorescence using Envision leader (Perkin Elmer, USA) [Laser as excitation light; […] as the first and the second emission filter]. Data was analyzed using XL Fit software.

[3] = test system: H460; assay: Cellular H460 viability assay (CellTiter-Glo, 72 hours); assay type: cell-based; details: Homo sapiens, NCI-H460
Method: All cell lines were routinely tested for mycoplasma.
The effect of the CDK7 inhibitor to inhibit the growth of target cancer cells was evaluated through the 72 hours time period of viability assay. Briefly, the candidate cell line ware plated in 96 well plate at the following density of cells respectively. […] DMSO solvent without compound served as a control and final DMSO concentration less than 0.1%. After 72 hours of incubation at 37° C., 5% CO2 incubator, cells were analyzed for the viability using the CellTiter-Glo Luminescent Cell Viability Assay (Promega, Cat #G7570). All viability assays were performed in duplicate and Luminescence was read using an Envision (Perkin Elmer, USA). Data was analyzed using XLfit software.

[4] = target: T3, CDK5/p25 (Homo sapiens, UniProt Q00535); assay: Enzymatic assay for CDK5 (FRET based LANCE Ultra kinase assay); assay type: biochemical
T3 construct: purchased Invitrogen PR8543B
T3 sequence (Q00535 whole entry): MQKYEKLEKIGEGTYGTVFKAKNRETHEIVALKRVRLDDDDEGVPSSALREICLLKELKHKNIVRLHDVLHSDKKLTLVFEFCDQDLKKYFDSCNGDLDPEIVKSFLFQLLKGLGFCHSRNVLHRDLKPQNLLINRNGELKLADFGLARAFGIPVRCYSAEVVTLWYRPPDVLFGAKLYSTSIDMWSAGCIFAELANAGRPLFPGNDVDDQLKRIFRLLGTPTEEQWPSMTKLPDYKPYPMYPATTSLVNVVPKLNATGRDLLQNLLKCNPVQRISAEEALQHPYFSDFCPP
T3 sequence (Q15078 99-307 partner limits assumed): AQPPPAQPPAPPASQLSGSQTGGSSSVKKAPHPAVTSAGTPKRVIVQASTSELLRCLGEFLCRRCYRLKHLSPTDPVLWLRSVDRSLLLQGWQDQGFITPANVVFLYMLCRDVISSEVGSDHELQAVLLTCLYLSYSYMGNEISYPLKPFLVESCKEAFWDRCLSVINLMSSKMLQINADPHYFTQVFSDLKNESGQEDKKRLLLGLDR
Method: as §1, §2

[5] = target: T4, CDK1/Cyclin B (Homo sapiens, UniProt P06493); assay: Enzymatic assay for CDK1 (FRET based LANCE Ultra kinase assay); assay type: biochemical
T4 construct: purchased Invitrogen PR4768C
T4 sequence (P06493 whole entry): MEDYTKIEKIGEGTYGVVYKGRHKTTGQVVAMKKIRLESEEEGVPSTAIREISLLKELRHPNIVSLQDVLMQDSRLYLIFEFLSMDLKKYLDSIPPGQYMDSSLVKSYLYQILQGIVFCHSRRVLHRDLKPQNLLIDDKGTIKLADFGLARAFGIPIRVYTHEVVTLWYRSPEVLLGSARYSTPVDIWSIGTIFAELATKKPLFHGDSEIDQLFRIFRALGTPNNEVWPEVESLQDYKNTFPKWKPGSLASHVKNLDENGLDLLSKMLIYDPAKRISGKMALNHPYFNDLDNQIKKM
T4 sequence (P14635 whole entry partner): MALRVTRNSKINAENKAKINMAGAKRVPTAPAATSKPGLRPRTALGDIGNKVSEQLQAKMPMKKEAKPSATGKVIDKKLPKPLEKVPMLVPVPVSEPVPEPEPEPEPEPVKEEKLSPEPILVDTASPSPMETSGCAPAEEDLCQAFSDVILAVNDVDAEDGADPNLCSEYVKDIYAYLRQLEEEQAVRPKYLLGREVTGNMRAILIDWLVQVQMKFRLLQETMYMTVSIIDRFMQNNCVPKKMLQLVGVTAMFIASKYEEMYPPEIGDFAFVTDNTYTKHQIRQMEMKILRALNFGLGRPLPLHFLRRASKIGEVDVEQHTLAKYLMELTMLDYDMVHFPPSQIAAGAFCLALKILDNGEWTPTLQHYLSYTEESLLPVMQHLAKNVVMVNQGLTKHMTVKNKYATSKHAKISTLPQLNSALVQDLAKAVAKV
Method: as §1, §2

[6] = read-out: CDK7 enzymatic activity (IC50 range)
[7] = read-out: CDK2 enzymatic activity (IC50 range)
[8] = read-out: CDK5 enzymatic activity (IC50 range)
[9] = read-out: CDK1 enzymatic activity (IC50 range)

T1 sequence (P50613 whole entry): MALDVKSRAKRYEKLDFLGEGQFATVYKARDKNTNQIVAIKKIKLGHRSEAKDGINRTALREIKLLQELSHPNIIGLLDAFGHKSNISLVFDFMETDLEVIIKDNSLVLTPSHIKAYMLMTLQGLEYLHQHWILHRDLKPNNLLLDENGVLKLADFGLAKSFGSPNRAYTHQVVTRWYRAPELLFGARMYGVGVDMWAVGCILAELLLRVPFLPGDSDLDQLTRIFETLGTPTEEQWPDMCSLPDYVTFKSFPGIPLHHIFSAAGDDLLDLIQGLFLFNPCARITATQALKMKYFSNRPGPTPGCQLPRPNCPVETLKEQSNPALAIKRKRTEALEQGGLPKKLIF
T1 sequence (P51946 whole entry partner): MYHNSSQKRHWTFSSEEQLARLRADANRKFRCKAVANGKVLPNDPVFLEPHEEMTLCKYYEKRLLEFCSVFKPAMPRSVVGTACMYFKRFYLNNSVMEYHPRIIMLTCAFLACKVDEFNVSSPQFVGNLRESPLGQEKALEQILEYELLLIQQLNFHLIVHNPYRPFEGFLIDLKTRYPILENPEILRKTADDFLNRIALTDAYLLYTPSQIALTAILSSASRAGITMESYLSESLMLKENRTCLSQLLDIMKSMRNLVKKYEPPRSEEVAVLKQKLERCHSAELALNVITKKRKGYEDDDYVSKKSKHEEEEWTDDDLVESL
T1 sequence (P51948 whole entry partner): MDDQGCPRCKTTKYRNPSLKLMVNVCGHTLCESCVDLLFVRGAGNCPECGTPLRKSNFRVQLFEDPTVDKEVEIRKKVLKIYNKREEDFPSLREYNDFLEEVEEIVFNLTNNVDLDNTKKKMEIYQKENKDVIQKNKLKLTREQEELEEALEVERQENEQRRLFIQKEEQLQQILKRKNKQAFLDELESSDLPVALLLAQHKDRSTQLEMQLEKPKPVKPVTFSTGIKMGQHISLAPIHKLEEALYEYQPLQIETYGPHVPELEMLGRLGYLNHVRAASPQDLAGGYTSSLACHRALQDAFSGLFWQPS

SMILES | CDK5/CDK7: Selectivity of CDK7 inhibition over CDK5 inhibition ([1]; CDK7 over CDK5) | IC50 [1, 6] | IC50 [2, 7] | IC50 [3] | IC50 [4, 8] | IC50 [5, 9] | CDK1/CDK7: Selectivity of CDK7 inhibition over CDK1 inhibition ([1]; CDK1/CDK7) | CDK2/CDK7: Selectivity of CDK7 inhibition over CDK2 inhibition ([1]; CDK2/CDK7) | CDK5/CDK7: Selectivity of CDK7 inhibition over CDK5 inhibition ([1]; CDK5/CDK7) | IC50 ([1]; read-out: CDK7 enzymatic activity (IC50 activity range)) | IC50 ([2]; read-out: CDK2 enzymatic activity (IC50 activity range)) | IC50 ([4]; read-out: CDK5 enzymatic activity (IC50 activity range)) | IC50 ([5]; read-out: CDK1 enzymatic activity (IC50 activity range)) | CDK1/CDK7: Selectivity of CDK7 inhibition over CDK1 inhibition ([1]; CDK7 over CDK1) | CDK2/CDK7: Selectivity of CDK7 inhibition over CDK2 inhibition ([1]; CDK7 over CDK2)
CC(C)c1cnn2c(NCc3ccccc3-n3cccn3)nc(C(=O)NC3CCNC3)nc12 (racemic) [Compound 8] | C (C=less than 20 fold) | 100 to 1000 nM | > 1000 nM | > 10000 nM | > 1000 nM | > 1000 nM | – | – | – | – | – | – | – | B (B=less than 200 fold, but greater than 20 fold) | B (B=less than 200 fold, but greater than 20 fold)
CC(C)c1cnn2c(NCc3cccc4cnn(C)c34)nc(N3CCC(N)CC3)nc12 [Compound 10] | C (C=less than 20 fold) | < 100 nM | 100 to 1000 nM | < 1000 nM | < 100 nM | 100 to 1000 nM | – | – | – | – | – | – | – | B (B=less than 200 fold, but greater than 20 fold) | B (B=less than 200 fold, but greater than 20 fold)
CCCNC(=O)Nc1ccccc1CNc1nc(N2CCC(N)CC2)nc2c(C(C)C)cnn12 [Compound 11] | B (B=less than 200 fold, but greater than 20 fold) | < 100 nM | 100 to 1000 nM | < 1000 nM | 100 to 1000 nM | > 1000 nM | – | – | – | – | – | – | – | A (A=greater than 200 fold) | B (B=less than 200 fold, but greater than 20 fold)
NC1CCN(c2nc(NCc3ccccc3-n3cccn3)n3ncc(C4CCCC4)c3n2)CC1 [Compound 12] | C (C=less than 20 fold) | < 100 nM | 100 to 1000 nM | < 1000 nM | < 100 nM | 100 to 1000 nM | – | – | – | – | – | – | – | B (B=less than 200 fold, but greater than 20 fold) | B (B=less than 200 fold, but greater than 20 fold)
CNC(=O)c1cccnc1CNc1nc(N2CCC(N)CC2)nc2c(C(C)(C)C)cnn12 [Compound 15] | B (B=less than 200 fold, but greater than 20 fold) | < 100 nM | > 1000 nM | – | > 1000 nM | > 1000 nM | – | – | – | – | – | – | – | A (A=greater than 200 fold) | A (A=greater than 200 fold)
CC(C)c1cnn2c(NCc3cccc4ncn(C)c34)nc(N3CCC(N)CC3)nc12 [Compound 16] | C (C=less than 20 fold) | < 100 nM | 100 to 1000 nM | < 1000 nM | < 100 nM | 100 to 1000 nM | – | – | – | – | – | – | – | B (B=less than 200 fold, but greater than 20 fold) | B (B=less than 200 fold, but greater than 20 fold)
CC(C)c1cnn2c(NCc3ccccc3Br)nc(N3CCC(N)CC3)nc12 [Compound 22] | – | – | – | < 1000 nM | – | – | – | – | – | – | – | – | – | – | –
CC(C)c1cnn2c(NCc3ccccc3-n3cccn3)nc(C3CCNCC3)nc12 [Compound 23] | – | – | – | < 1000 nM | – | – | – | – | – | – | – | – | – | – | –
CC(C)c1cnn2c(NCc3ccccc3-n3cccn3)nc([C@H]3CC[C@H](N)CC3)nc12 [Compound 25] | C (C=less than 20 fold) | < 100 nM | < 100 nM | < 1000 nM | < 100 nM | 100 to 1000 nM | – | – | – | – | – | – | – | B (B=less than 200 fold, but greater than 20 fold) | C (C=less than 20 fold)
CC(C)c1cnn2c(NCc3c[nH]c4ccccc34)nc(N3CCC(N)CC3)nc12 [Compound 28] | C (C=less than 20 fold) | < 100 nM | 100 to 1000 nM | – | 100 to 1000 nM | > 1000 nM | – | – | – | – | – | – | – | B (B=less than 200 fold, but greater than 20 fold) | B (B=less than 200 fold, but greater than 20 fold)
NC1CCN(c2nc(NCc3ccccc3-n3cccn3)n3ncc(Cl)c3n2)CC1 [Compound 29] | – | – | – | 1000 to 10000 nM | – | – | – | – | – | – | – | – | – | – | –
CC(C)c1cnn2c(NCc3ccccc3-c3cc4cccc(NC(=O)N(C)C)c4[nH]3)nc(N3CCC(N)CC3)nc12 [Compound 149] | C (C=less than 20 fold) | < 100 nM | < 100 nM | < 1000 nM | < 100 nM | 100 to 1000 nM | – | – | – | – | – | – | – | B (B=less than 200 fold, but greater than 20 fold) | B (B=less than 200 fold, but greater than 20 fold)
CC(C)c1cnn2c(NCc3ccccc3-n3cccn3)nc(-c3ccc(C4CCNCC4)cc3)nc12 [Compound 168] | B (B=less than 200 fold, but greater than 20 fold) | < 100 nM | 100 to 1000 nM | – | 100 to 1000 nM | > 1000 nM | – | – | – | – | – | – | – | A (A=greater than 200 fold) | B (B=less than 200 fold, but greater than 20 fold)

The next lines start with results.

CDK5/CDK7: Selectivity of CDK7 inhibition over CDK5 inhibition ([1]; CDK7 over CDK5) | IC50 [1, 6] | IC50 [2, 7] | IC50 [3] | IC50 [4, 8] | IC50 [5, 9] | CDK1/CDK7: Selectivity of CDK7 inhibition over CDK1 inhibition ([1]; CDK1/CDK7) | CDK2/CDK7: Selectivity of CDK7 inhibition over CDK2 inhibition ([1]; CDK2/CDK7) | CDK5/CDK7: Selectivity of CDK7 inhibition over CDK5 inhibition ([1]; CDK5/CDK7) | IC50 ([1]; read-out: CDK7 enzymatic activity (IC50 activity range)) | IC50 ([2]; read-out: CDK2 enzymatic activity (IC50 activity range)) | IC50 ([4]; read-out: CDK5 enzymatic activity (IC50 activity range)) | IC50 ([5]; read-out: CDK1 enzymatic activity (IC50 activity range)) | SMILES | CDK1/CDK7: Selectivity of CDK7 inhibition over CDK1 inhibition ([1]; CDK7 over CDK1) | CDK2/CDK7: Selectivity of CDK7 inhibition over CDK2 inhibition ([1]; CDK7 over CDK2)
– | – | – | > 10000 nM | – | – | – | – | – | – | – | – | – | CC(C)c1cnn2c(NCc3ccccc3-n3cccn3)nc(C(=O)N3CCN(C)CC3)nc12 [Compound 7] | – | –
C (C=less than 20 fold) | < 100 nM | 100 to 1000 nM | < 1000 nM | < 100 nM | 100 to 1000 nM | – | – | – | – | – | – | – | Cc1nc2c(CNc3nc(N4CCC(N)CC4)nc4c(C(C)C)cnn34)cccc2o1 [Compound 33] | B (B=less than 200 fold, but greater than 20 fold) | B (B=less than 200 fold, but greater than 20 fold)
C (C=less than 20 fold) | < 100 nM | 100 to 1000 nM | 1000 to 10000 nM | 100 to 1000 nM | > 1000 nM | – | – | – | – | – | – | – | N#Cc1cnn2c(NCc3ccccc3-n3cccn3)nc(N3CCC(N)CC3)nc12 [Compound 34] | B (B=less than 200 fold, but greater than 20 fold) | C (C=less than 20 fold)
C (C=less than 20 fold) | < 100 nM | > 1000 nM | 1000 to 10000 nM | 100 to 1000 nM | > 1000 nM | – | – | – | – | – | – | – | Cc1ccc(CNc2nc(N3CCC(N)CC3)nc3c(C(C)C)cnn23)cc1-n1cccn1 [Compound 65] | B (B=less than 200 fold, but greater than 20 fold) | B (B=less than 200 fold, but greater than 20 fold)
C (C=less than 20 fold) | < 100 nM | 100 to 1000 nM | 1000 to 10000 nM | 100 to 1000 nM | > 1000 nM | – | – | – | – | – | – | – | CC(C)c1cnn2c(NCc3ccc(Cl)c(-n4cccn4)c3)nc(N3CCC(N)CC3)nc12 [Compound 67] | B (B=less than 200 fold, but greater than 20 fold) | C (C=less than 20 fold)
– | – | – | – | – | – | A (A=greater than 200 fold) | A (A=greater than 200 fold) | A (A=greater than 200 fold) | < 100 nM | > 1000 nM | > 1000 nM | > 1000 nM | Cc1cccc(-c2cc(C(C)(C)O)n(C)n2)c1CNc1nc(N2CCC(N)CC2)nc2c(C(C)C)cnn12 [Compound 259] | – | –

— patent US11945822B2, “Pyrazolo-triazine and/or pyrazolo-pxrimidine derivatives as selective inhibitor of cyclin dependent kinase” (QURIENT CO., LTD., priority 2018, dated 2024)
